# According to patent US20090221567A1, “MUSCARINIC RECEPTOR AGONISTS, COMPOSITIONS, METHODS OF TREATMENT THEREOF, AND PROCESSES FOR PREPARATION THEREOF 177” (ASTRAZENECA AB, priority 2008, published 2009):
# Biological target: T1, hM1 (human Muscarinic receptor subtype 1) (Homo sapiens, UniProt P11229)
# T1 construct: expressed in transfected cells; host or cells: CHO cells (Chinese hamster ovary cells, ATCC)
# T1 sequence (P11229 1-460): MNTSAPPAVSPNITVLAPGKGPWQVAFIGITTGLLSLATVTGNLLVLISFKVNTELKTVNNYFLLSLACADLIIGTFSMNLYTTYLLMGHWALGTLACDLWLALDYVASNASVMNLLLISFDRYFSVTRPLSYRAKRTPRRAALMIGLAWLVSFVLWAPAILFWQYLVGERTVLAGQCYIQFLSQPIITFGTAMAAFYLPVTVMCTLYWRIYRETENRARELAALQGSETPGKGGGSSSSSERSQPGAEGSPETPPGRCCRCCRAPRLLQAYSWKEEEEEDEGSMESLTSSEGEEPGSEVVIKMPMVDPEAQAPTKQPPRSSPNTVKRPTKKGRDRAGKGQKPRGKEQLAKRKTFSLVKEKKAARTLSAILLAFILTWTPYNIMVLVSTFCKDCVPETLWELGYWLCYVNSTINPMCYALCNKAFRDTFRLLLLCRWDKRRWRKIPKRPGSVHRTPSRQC
# Assay: Human M1 calcium mobilization FLIPR assay
# Format: cell-based
# Details: read-out: hM1 EC50 values
# Procedure: (§1) The compound activity in the present invention (EC50 or IC50) is measured using a 384 plate-based imaging assay that monitors drug induced intracellular Ca^2+ release in whole cells. Activation of hM1 (human Muscarinic receptor subtype 1, gene bank access NM_000738), rM1 (rat Muscarinic receptor subtype 1, gene bank access NM_080773), hM3 (human Muscarinic receptor subtype 3, gene bank access NM_000740NM_000740) and hM5 (human Muscarinic receptor subtype 5, gene bank access NM_0121258), receptors expressed in CHO cells (Chinese hamster ovary cells, ATCC) is quantified in a Molecular Devices FLIPR IITM instrument as an increase in fluorescent signal. Inhibition of hM3 and hM5 by compounds is determined by the decrease in fluorescent signal in response to 2 nM acetylcholine activation.
# (§2) Prior to experiment, the cell culture medium is removed from the plates by inversion. […] Plates are incubated at 37° C. for 60 minutes prior to start the experiment. The incubation is terminated by washing the cells four times in assay buffer, leaving a residual 25 μl buffer per well. Cell plates are then transferred to the FLIPR, ready for compound additions.
# (§3) The day of experiment, acetylcholine and compounds are diluted in assay buffer in three-fold concentration range (10 points serial dilution) for addition by FLIPR instrument. For all calcium assays, a baseline reading is taken for 10 seconds followed by the addition of 12.5 μl of compounds, resulting in a total well volume of 37.5 μl. Data is collected every second for 60 pictures and then every 6 seconds for 20 pictures prior to the addition of agonist. For hM3 and hM5, before agonist addition, a second baseline reading is taken for 10 seconds followed by the addition of 12.5 μl of agonist or buffer, producing a final volume of 50 μl. After agonist stimulation, the FLIPR continues to collect data every second for 60 pictures and then every 6 seconds for 20 pictures. The fluorescence emission is read using filter 1 (emission 510-570 nm) by the FLIPR on board CCD camera.
# (§4) Calcium mobilization output data are calculated as the maximal relative fluorescence unit (RFU) minus the minimal value for both compound and agonist reading frame (except for hM1 and rM1 using only the maximal RFU). Data are analyzed using sigmoidal fits of a non-linear curve-fitting program (XLfit version 4.2.2 Excel add-in version 4.2.2 build 18 math 1Q version 2.1.2 build 18). All pEC50 and pIC50 values are reported as arithmetic means±standard error of mean of ‘n’ independent experiments.
row,SMILES,EC50 [nM]
1,"CC(C)(C)OC(=O)N1CCC(N2CCC(N3C(=O)CO[C@H]4CCCC[C@@H]43)CC2)CC1 [tert-butyl 4-[4-[(4aS,8aS)-3-oxo-4a,5,6,7,8,8a-hexahydrobenzo[b][1,4]oxazin-4-yl]-1-piperidyl]piperidine-1-carboxylate]",> 2890
2,"CC(C)(C)OC(=O)N1CCC(N2CCC(N3C(=O)OC[C@@H]4CCCC[C@H]43)CC2)CC1 [tert-butyl 4-[4-[(4aR,8aR)-2-oxo-4a,5,6,7,8,8a-hexahydro-4H-benzo[d][1,3]oxazin-1-yl]-1-piperidyl]piperidine-1-carboxylate]",> 2890
3,"CC(C)OC(=O)N1CCC(C)(N2CCC(N3C(=O)CO[C@H]4CCCC[C@@H]43)CC2)CC1 [isopropyl 4-[4-[(4aS, 8aS)-3-oxo-4a,5,6,7,8,8a-hexahydrobenzo[b][1,4]oxazin-4-yl]-1-piperidyl]-4-methyl-piperidine-1-carboxylate]",> 2890
4,"COC(=O)N1CCC(N2CCC(N3C(=O)OC[C@H]4CCCC[C@@H]43)CC2)CC1 [methyl 4-[4-[(4aS,8aS)-2-oxo-4a,5,6,7,8,8a-hexahydro-4H-benzo[d][1,3]oxazin-1-yl]-1-piperidyl]piperidine-1-carboxylate]",> 2890
5,"CC(C)OC(=O)N1CCC(C)(N2CCC(N3C(=O)CN[C@H]4CCCC[C@@H]43)CC2)CC1 [isopropyl 4-[4-[(4aS,8aS)-2-oxo-3,4,4a,5,6,7,8,8a-octahydroquinoxalin-1-yl]-1-piperidyl]-4-methyl-piperidine-1-carboxylate]",> 2890
6,"CC(C)OC(=O)N1CC[C@H](N2CCC(N3C(=O)CO[C@H]4CCCC[C@@H]43)CC2)C1 [isopropyl (3S)-3-[4-[(4aS,8aS)-3-oxo-4a,5,6,7,8,8a-hexahydrobenzo[b][1,4]oxazin-4-yl]-1-piperidyl]pyrrolidine-1-carboxylate]",> 2890
7,"Cc1ccccc1C(=O)N1CCC(N2CCC(N3C(=O)OC[C@H]4CCCC[C@@H]43)CC2)CC1 [(4aS,8aS)-1-[1-[1-(2-methylbenzoyl)-4-piperidyl]-4-piperidyl]-4a,5,6,7,8,8a-hexahydro-4H-benzo[d][1,3]oxazin-2-one]",> 2890

# Same assay, conditions: receptor expressed in CHO cells, intracellular Ca2+ release; read-out: hM1 EC50
row,SMILES,EC50 [nM]
1,"CCOC(=O)N1CCC(N2CCC(N3C(=O)NC[C@H]4CCCC[C@@H]43)CC2)C1 (stereo partly drawn) [Example 5, ethyl 3-[4-[(4aR,8aS)-2-oxo-3,4,4a,5,6,7,8,8a-octahydroquinazolin-1-yl]-1-piperidyl]pyrrolidine-1-carboxylate]",31
2,"CC(C)OC(=O)N1CCC(N2CCC(N3C(=O)OC[C@H]4CCCC[C@@H]43)CC2)CC1 [Example 16, Propan-2-yl 4-[4-[(1S,6S)-9-oxo-8-oxa-10-azabicyclo[4.4.0]dec-10-yl]-1-piperidyl]piperidine-1-carboxylate]",220
3,"COc1ccsc1C(=O)N1CCC(N2CCC(N3C(=O)OC[C@H]4CCCC[C@@H]43)CC2)CC1 (racemic) [Example 17, (±)(trans)-10-[1-[1-(3-methoxythiophene-2-carbonyl)-4-piperidyl]-4-piperidyl]-8-oxa-10-azabicyclo[4.4.0]decan-9-one]",270

# Biological target: T2, hM3 (human Muscarinic receptor subtype 3) (Homo sapiens, UniProt P20309)
# T2 construct: expressed in transfected cells; host or cells: CHO cells (Chinese hamster ovary cells, ATCC)
# T2 sequence (P20309 whole entry): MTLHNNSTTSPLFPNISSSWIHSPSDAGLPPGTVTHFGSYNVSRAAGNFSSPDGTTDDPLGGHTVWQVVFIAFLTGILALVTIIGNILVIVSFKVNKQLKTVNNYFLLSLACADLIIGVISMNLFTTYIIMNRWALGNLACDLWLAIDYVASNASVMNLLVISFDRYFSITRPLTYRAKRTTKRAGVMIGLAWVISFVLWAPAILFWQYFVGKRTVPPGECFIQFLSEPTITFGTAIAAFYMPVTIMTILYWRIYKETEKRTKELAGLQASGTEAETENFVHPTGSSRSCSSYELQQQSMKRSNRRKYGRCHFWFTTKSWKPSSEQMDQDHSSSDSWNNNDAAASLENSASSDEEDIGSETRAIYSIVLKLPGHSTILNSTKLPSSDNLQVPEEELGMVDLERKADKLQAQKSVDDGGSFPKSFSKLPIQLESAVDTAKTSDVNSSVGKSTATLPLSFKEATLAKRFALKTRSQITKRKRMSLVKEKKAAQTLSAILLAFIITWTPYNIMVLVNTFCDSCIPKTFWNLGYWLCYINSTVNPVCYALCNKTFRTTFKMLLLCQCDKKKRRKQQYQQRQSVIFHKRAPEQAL
# Assay: Human M3 calcium mobilization FLIPR assay
# Format: cell-based
# Details: receptor expressed in CHO cells, intracellular Ca2+ release
# Procedure: as §1, §2, §3, §4
row,SMILES,EC50 [nM]
1,"COc1ccsc1C(=O)N1CCC(N2CCC(N3C(=O)OC[C@H]4CCCC[C@@H]43)CC2)CC1 (racemic) [Example 17, (±)(trans)-10-[1-[1-(3-methoxythiophene-2-carbonyl)-4-piperidyl]-4-piperidyl]-8-oxa-10-azabicyclo[4.4.0]decan-9-one]",> 40000

# Biological target: T3, hM5 (human Muscarinic receptor subtype 5) (Homo sapiens, UniProt P08912)
# T3 construct: expressed in transfected cells; host or cells: CHO cells (Chinese hamster ovary cells, ATCC)
# T3 sequence (P08912 1-532): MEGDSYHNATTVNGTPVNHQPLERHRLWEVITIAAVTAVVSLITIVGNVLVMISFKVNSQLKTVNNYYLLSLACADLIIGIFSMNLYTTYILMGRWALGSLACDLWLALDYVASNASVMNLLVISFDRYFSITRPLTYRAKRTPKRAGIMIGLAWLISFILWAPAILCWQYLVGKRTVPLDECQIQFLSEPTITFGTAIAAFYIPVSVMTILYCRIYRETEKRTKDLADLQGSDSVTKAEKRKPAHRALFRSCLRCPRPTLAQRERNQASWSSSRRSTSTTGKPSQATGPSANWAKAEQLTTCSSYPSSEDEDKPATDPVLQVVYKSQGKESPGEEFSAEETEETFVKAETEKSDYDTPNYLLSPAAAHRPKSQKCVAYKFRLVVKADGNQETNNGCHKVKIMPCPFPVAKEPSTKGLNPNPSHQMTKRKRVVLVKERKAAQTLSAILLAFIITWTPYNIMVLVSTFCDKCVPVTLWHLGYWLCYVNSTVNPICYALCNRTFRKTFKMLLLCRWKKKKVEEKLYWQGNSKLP
# Assay: Human M5 calcium mobilization FLIPR assay
# Format: cell-based
# Details: receptor expressed in CHO cells, intracellular Ca2+ release
# Procedure: as §1, §2, §3, §4
row,SMILES,EC50 [nM]
1,"COc1ccsc1C(=O)N1CCC(N2CCC(N3C(=O)OC[C@H]4CCCC[C@@H]43)CC2)CC1 (racemic) [Example 17, (±)(trans)-10-[1-[1-(3-methoxythiophene-2-carbonyl)-4-piperidyl]-4-piperidyl]-8-oxa-10-azabicyclo[4.4.0]decan-9-one]",> 40000
